The record followed here is patent EP1655608A1, “CFTR as a component of an autophagy signaling pathway, applications thereof to autophagic diseases, and determination of cystic fibrosis as an autophagic disease” (priority 2004, dated 2006).

One data set relates to Sertoli cells. The experiment in a line: Cell death and apoptotic features in Lindane-treated Sertoli cells. Type of data set: cell-based, mouse. The method, then: (§1) Autophagy was induced either by starvation or by treatment with Lindane under nutrient-rich condition. For Lindane treatment, cells were serum-starved for 2-16 hours in DMEM/Ham's F12 (1:1, GIBCO #61965-026: F12 GIBCO #31765-027) supplemented with either 1% Insulin-Transferrin-SeleniumA (GIBCO #51300-044) or 0.1% bovine serum albumin (A7030, Sigma) and treated with Lindane (50 µM, Sigma, H4500).
The ultrastructural changes caused by Lindane or starvation in Sertoli and renal cells were analysed by transmission electron microscopy, as previously described (57). […] Cell pellets were then rinsed in cacodylate buffer, postfixed in 1% OsO4 for 1 h at 4°C, dehydrated through graded ethanol washes, and embedded in epoxy resin. Oriented […] sections were obtained with diamond knives, and representative areas were chosen for ultra-thin sectioning. Thin […] sections were mounted on copper mesh grids, stained with uranyl acetate and lead citrate, and examined on a JEOL 1200 EXII electron microscope. 30-50 micrographs were taken randomly from each sample at primary magnification × 10,000.

In a further data set the test system is p38. Briefly: p38 / Jun kinase activation by Western blotting of Sertoli cell lysates. Type of data set: cell-based, mouse. To be noted: Anisomycin 10 µg/ml, 15 min; phosphorylation of p38 and MK2. The text has this:
(§2) After stripping, equal loadings of proteins were verified by reprobing the blots with anti-ERK1 (Santa Cruz Biotechnology).
A general note: In western blotting, separated proteins are transferred to a membrane and probed.

For data set [1], the target named is CFTR Cl^- channel (Mus musculus, UniProt P26361). The experiment in a line: Whole-cell patch-clamp Cl- currents in Sertoli cells. It counts as cell-based. Details: endogenous in cells; host or cells: Sertoli 42GPA9 cell line (mouse). Here is the method:
Whole cell currents were monitored from Sertoli cells, CFTR^-/- and WT renal epithelial cells with an RK 400 amplifier (Biologic, Münster, Germany) as previously described (40). The bath (extracellular) solution consisted of 140 mM NMDGCl (N-methyl-D-glucamine chloride), 5 mM D-Glucose, 1 mM CaCl2, and 10 mM HEPES, pH 7.4. Patch pipette (intracellular) solution contained 140 mM NMDGCl, 5 mM D-Glucose, 5 mM EGTA, 5 mM MgATP, and 10 mM HEPES, pH 7.4. Osmolarity of both solutions was adjusted to 280 mOSM by adding mannitol. These solutions were designed to study Cl^- currents because Cl^- is the sole permeant ion in these conditions and to prevent Ca^2+ activated Cl^- currents by the addition of EGTA in the patch solution. After establishment of whole cell configuration, cells were stimulated by the addition of Lindane (50 µM), FSK (10 µM), vehicle (Me2S0 or ethanol) in the absence or the presence of NPPB (0.1mM), DIDS (4,4'-diisothiocyanatostilbene-2,2'-disulfonic acid, 1 mM, Sigma), glibenclamide (0.1mM, Sigma) or PD98059 (10 µM) in the bath solution. The cell membrane potential was clamped at -50mV and 400 ms pulses were applied from -100 to +120 mV with increments of 20 mV every 2 s. To generate whole cell current-voltage (I-V) relationship, membrane currents resulting from voltage stimuli were recorded for at least 3 min and analysed using an IBM-AT-compatible computer equipped with Digidata 1200 interface (Axon Instruments) and pCLAMP software (versions 5.51 and 6.0, Axon Instruments), respectively. Statistics-Results are expressed as mean ± S.E. of n observations using the Student's t test.

A further data set concerns p42^ERK2 and p44^ERK1. The experiment in a line: ERK activation by anti-phospho-ERK Western blotting of cell lysates. Type of data set: cell-based, mouse.
Description: as §2

For data set [2], the system named is CFTR Cl^- channel. The experiment in a line: Whole-cell patch-clamp Cl- currents in CFTR+/+ and CFTR-/- renal distal cells. Type of data set: cell-based, mouse. The text has this:
To address the importance of CFTR in autophagy, renal cells derived from distal tubules or the proximal convoluted tubules of Wild type (WT or CFTR^+/+) or CFTR deficient (CFTR^-/-) mice (40) were isolated and immortalized with the pSV3 neo vector, as described below (55).
Whole cell currents were monitored from Sertoli cells, CFTR^-/- and WT renal epithelial cells with an RK 400 amplifier (Biologic, Münster, Germany) as previously described (40). The bath (extracellular) solution consisted of 140 mM NMDGCl (N-methyl-D-glucamine chloride), 5 mM D-Glucose, 1 mM CaCl2, and 10 mM HEPES, pH 7.4. Patch pipette (intracellular) solution contained 140 mM NMDGCl, 5 mM D-Glucose, 5 mM EGTA, 5 mM MgATP, and 10 mM HEPES, pH 7.4. Osmolarity of both solutions was adjusted to 280 mOSM by adding mannitol. […] To generate whole cell current-voltage (I-V) relationship, membrane currents resulting from voltage stimuli were recorded for at least 3 min and analysed using an IBM-AT-compatible computer equipped with Digidata 1200 interface (Axon Instruments) and pCLAMP software (versions 5.51 and 6.0, Axon Instruments), respectively. Statistics-Results are expressed as mean ± S.E. of n observations using the Student's t test.
A general note: The patch-clamp technique gives a direct electrical read-out from membranes.

The next data set has as its system CFTR-EGFP. The experiment in a line: Subcellular distribution of CFTR-EGFP by confocal microscopy. It counts as cell-based, hamster. As to conditions: BHK cells, Lindane 24 h, NH4Cl 5 mM in medium. Here is the method:
BHK-21 (Baby hamster kidney epithelial cells, ATCC) stably expressing CFTR-EGFP cell-line was maintained in Dulbecco's modified Eagle's medium (DMEM, GIBCO) containing 10% fetal calf serum (GIBCO).
as §1

The test system of the next data set is Sertoli 42GPA9 cells. Briefly: Autophagic vacuolation of Sertoli cells (light, electron and confocal microscopy). Type of data set: cell-based, mouse. The method, then: Autophagy was induced either by starvation or by treatment with Lindane under nutrient-rich condition.
When bafilomycin A1 (BafA1, V-ATPase-specific inhibitor, 100 nM, Sigma); Park Davis Inhibitor PD98059 (MEK1-specific inhibitor, 10 µM, Cell Signaling), H89 (PKA inhibitor, 5 µM, Calbiochem), 3-Methyladenine (3 MA, autophagy-specific inhibitor, 10-30 mM, Sigma) or NPPB [5-nitro-2-(3-phenylpropylamino) benzoic acid, Cl^- channel blocker, 25 µM, Sigma] was used, it was added to the starvation medium for 90 min, prior to Lindane addition or nutrient deprivation.
The ultrastructural changes caused by Lindane or starvation in Sertoli and renal cells were analysed by transmission electron microscopy, as previously described (57). […] Cell pellets were then rinsed in cacodylate buffer, postfixed in 1% OsO4 for 1 h at 4°C, dehydrated through graded ethanol washes, and embedded in epoxy resin. Oriented […] sections were obtained with diamond knives, and representative areas were chosen for ultra-thin sectioning. […] 30-50 micrographs were taken randomly from each sample at primary magnification × 10,000.
Sertoli cells seeded on glass coverslips were transiently transfected with EGFP-Rab7 or MEK1^+-HA expression plasmids using Fugene 6 reagent (Roche), washed and allowed to recover overnight before addition of Lindane (50 µM). […] To determine the pH of the Lindane-induced vacuoles, living cells were stained with acridine-orange (5 µg/ml, Sigma), a membrane-permeable weak base whose fluorescence shifts from green at neutral pH to red in acidic compartments (59). 10 min later, cells were washed and directly observed under a confocal microscope.

“Also recorded” adds a separate entry of the source.

Sequence of CFTR Cl^- channel (Mus musculus, UniProt P26361) (P26361 whole entry): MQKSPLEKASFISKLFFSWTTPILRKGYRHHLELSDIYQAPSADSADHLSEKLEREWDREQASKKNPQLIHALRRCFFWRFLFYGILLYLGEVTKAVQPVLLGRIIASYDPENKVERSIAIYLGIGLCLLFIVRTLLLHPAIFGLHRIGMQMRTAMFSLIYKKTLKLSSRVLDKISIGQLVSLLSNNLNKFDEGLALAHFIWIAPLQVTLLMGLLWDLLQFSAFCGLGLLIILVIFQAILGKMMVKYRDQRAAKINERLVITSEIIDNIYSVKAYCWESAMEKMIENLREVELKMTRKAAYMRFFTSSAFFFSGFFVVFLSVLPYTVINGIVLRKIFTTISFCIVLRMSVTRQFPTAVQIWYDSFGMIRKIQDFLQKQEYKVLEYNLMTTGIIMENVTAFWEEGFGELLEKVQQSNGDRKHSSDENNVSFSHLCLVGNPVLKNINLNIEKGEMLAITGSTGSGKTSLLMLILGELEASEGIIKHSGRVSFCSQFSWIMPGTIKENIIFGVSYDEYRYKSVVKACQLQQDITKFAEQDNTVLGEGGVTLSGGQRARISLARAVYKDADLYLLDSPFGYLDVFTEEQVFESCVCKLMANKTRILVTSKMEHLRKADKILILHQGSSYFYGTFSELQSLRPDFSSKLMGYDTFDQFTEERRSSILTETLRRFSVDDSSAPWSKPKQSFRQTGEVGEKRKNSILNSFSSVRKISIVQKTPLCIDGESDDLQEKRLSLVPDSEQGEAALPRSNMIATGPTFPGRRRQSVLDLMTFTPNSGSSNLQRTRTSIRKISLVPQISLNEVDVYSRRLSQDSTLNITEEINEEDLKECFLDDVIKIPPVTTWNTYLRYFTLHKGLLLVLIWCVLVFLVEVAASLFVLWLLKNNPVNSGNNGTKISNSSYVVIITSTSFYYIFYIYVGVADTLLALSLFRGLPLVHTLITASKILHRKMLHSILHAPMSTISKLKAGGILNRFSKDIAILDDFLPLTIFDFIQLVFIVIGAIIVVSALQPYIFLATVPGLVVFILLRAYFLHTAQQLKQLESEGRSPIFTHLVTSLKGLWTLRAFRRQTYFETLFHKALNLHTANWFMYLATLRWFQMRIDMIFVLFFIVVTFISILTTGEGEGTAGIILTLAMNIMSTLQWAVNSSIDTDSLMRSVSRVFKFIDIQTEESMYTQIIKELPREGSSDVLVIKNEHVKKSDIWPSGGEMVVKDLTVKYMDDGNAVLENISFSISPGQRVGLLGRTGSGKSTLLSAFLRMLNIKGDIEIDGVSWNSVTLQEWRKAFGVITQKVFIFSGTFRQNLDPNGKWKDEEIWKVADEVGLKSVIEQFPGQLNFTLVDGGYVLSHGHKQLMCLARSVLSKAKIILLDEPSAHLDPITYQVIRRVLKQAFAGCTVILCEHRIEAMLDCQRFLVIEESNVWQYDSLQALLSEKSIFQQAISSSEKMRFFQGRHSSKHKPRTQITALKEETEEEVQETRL

As for `Cl[C@H]1[C@H](Cl)[C@@H](Cl)[C@@H](Cl)[C@H](Cl)[C@H]1Cl` [Lindane, γ-hexachlorocyclohexane], in the data set with Sertoli cells (Lindane 50 µM), the dead cells entry is given as “little if any dead cells”. The “propidium iodide staining of vacuolated cells” value with Sertoli cells (Lindane 50 µM, late stages) is “did not stain with propidium iodide”. The “apoptotic features (caspase 3 activation, PARP cleavage, chromatin condensation, nuclear pyknosis, mitochondria degeneration)” value with Sertoli cells (Lindane-treated cells) was “absence of several apoptotic morphological and biochemical features”. In addition, the “cell lysis on longer exposure” value in the data set on Sertoli cells (exposure for four days) was “not associated with cell lysis”. Moreover, the “effect on Anisomycin-induced p38 activity” value in the data set with p38 is given as “not ascribed to p38 inhibition”. In addition, the “anion selectivity sequence of induced currents” value on CFTR Cl^- channel [1] is “Br^-≥ Cl^->>I^-”. Further, on CFTR Cl^- channel [1] (Lindane 50 µM), the “Cl^- conductance across plasma membrane” value is reported as “increased within minutes”. Further, the “reversal potential of induced currents” value on CFTR Cl^- channel [1] (symmetrical Cl- solutions) was ~ 0 mV. Moreover, in the data set on p42^ERK2 and p44^ERK1 (CFTR^-/- renal cells), the “ERK stimulation in CFTR^-/- cells” value is “still stimulated”. Also, the “duration of ERK activation” value in the data set on p42^ERK2 and p44^ERK1 (Sertoli cells, Lindane) is reported as “more than 24 h”. Further, the “ERK activation in Sertoli cells” value with p42^ERK2 and p44^ERK1 (Sertoli cells, Lindane 50 µM, DDT 1.8 µM, Bϕ 90 µM, PCP 15 µM) was “rapid and sustained activation of both p42^ERK2 and p44^ERK1; also recorded: induced the activation of both p42^ERK2 and p44^ERK1”. Further, in the data set with CFTR Cl^- channel [2] (Lindane 50 µM), the “induction of Cl^- currents in CFTR^+/+ renal distal cells” value is recorded as “induction of Cl^- currents”. In addition, in the data set with CFTR Cl^- channel [2] (renal distal cells, n = 8), the “reversed potential of induced currents” value is ~ 0 mV. Also, in the data set on CFTR-EGFP, the “distribution of CFTR” value is recorded as “redistributed from plasma membrane to vacuoles”. The “size of autophagic vacuoles” value with Sertoli 42GPA9 cells (Lindane 50 µM, 24 h, electron microscopy) is reported as 2-20 µm^2. Besides, the “autophagic vacuoles observed per cell” value in the data set on Sertoli 42GPA9 cells (Lindane 50 µM, 24 h, electron microscopy, n = 20 cells, average) is ~ 50. The “induction of vacuolation / autophagy by the chemical alone” value in the data set with Sertoli 42GPA9 cells (Lindane 50 µM, DDT 1.8 µM, Bϕ 90 µM, PCP 15 µM, SB203580 10 µM, NH4Cl 5 mM, 24 h) is on record as “powerful activator of autophagy”. The “time of maximal vacuolation” value with Sertoli 42GPA9 cells (Lindane treatment) is 24 to 48 h. In addition, the reversibility of vacuolation entry in the data set on Sertoli 42GPA9 cells (upon removal of the chemical) was “reversible upon Lindane removal”.
